According to ChEMBL document CHEMBL4414618, “Structure-Activity Relationships of Fish Oil Derivatives with Antiallergic Activity in Vitro and in Vivo” (J Med Chem, 2019):
pIC50: −log10 of the molar value.

Legend:
[1] = system: RBL-2H3; assay: Antiallergic activity in rat RBL2H3 cells assessed as inhibition of DNP-HSA-mediated degranulation by measuring decrease in beta-hexosaminidase activity preincubated for 30 mins followed by DNP-HSA stimulation and measured after 30 mins by 4-nitrophenyl 2-acetamido-2-deoxy-beta-D-glucopyranoside substrate based assay; type: functional, cell-based
[2] = system: Mus musculus; assay: Antiallergic activity in BALB/c mouse assessed as reduction in anti-DNP-IgE-mediated passive cutaneous anaphylaxis at 1000 mg/kg, po administered once daily for 5 days followed by anti-DNP-IgE stimulation on day 4 and subsequent DNP-HSA challenge on day 5 post 1 hr compound dose and measured after 30 mins by Evans blue dye-based spectrophotometric method relative to control; type: functional; parameters: scale not given: the % may be the effect or the level left
[3] = biological target: T1, Fatty-acid amide hydrolase 1 (Homo sapiens, UniProt O00519); assay: Inhibition of human FAAH expressed in baculovirus infected Sf9 cells using N-(6-methoxypyridin-3-yl)octanamide as substrate measured for 15 mins by fluorescence based assay
T1 sequence (O00519 whole entry): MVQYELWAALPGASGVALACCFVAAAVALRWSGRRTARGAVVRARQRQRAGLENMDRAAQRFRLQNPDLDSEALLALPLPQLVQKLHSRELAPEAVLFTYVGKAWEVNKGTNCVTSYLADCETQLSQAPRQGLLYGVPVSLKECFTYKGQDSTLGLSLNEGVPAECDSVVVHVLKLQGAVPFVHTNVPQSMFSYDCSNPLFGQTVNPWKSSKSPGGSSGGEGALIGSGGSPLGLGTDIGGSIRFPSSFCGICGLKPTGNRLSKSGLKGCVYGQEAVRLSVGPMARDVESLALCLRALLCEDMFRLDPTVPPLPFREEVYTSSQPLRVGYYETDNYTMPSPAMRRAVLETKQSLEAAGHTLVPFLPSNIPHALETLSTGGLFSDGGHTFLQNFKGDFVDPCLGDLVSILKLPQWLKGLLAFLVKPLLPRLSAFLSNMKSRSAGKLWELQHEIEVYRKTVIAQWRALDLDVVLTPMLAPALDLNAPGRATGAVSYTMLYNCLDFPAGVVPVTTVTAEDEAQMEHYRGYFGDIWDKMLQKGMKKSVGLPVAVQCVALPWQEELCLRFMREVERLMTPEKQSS

[4] = biological target: T1, Fatty-acid amide hydrolase 1; assay: Substrate activity at human FAAH expressed in baculovirus infected Sf9 cells assessed as docosahexaenoic acid formation incubated for 60 mins by HPLC analysis; type: ADME; conditions: sf9, 1 h

| SMILES | pIC50 [1] | Activity [2] [%] | pIC50 [3] | Drug metabolism [4] |
| --- | --- | --- | --- | --- |
| CCCCCCCC/C=C\CCCCCCCCCCCC(=O)NCCO | < 4.30 |  |  |  |
| CC/C=C\C/C=C\C/C=C\C/C=C\C/C=C\C/C=C\CCC(=O)NS(C)(=O)=O | < 4.30 |  |  |  |
| CCCCC/C=C\C/C=C\C/C=C\CCCCCCC(=O)NCCO | < 4.30 |  |  |  |
| CC/C=C\C/C=C\C/C=C\C/C=C\C/C=C\C/C=C\CCC(=O)NCCN | < 4.30 |  |  |  |
| CC/C=C\C/C=C\C/C=C\C/C=C\C/C=C\C/C=C\CCC(=O)NS(=O)(=O)c1ccc(C(=O)O)cc1 | < 4.30 |  |  |  |
| CCCCC/C=C\C/C=C\C/C=C\C/C=C\CCCC(=O)O [ARACHIDONIC ACID] | < 4.30 |  |  |  |
| CC/C=C\C/C=C\C/C=C\C/C=C\C/C=C\C/C=C\CCC(=O)NC(CO)CO | 4.80 | 17 | < 4.30 | Metabolite_Notdetected |
| CC/C=C\C/C=C\C/C=C\C/C=C\C/C=C\C/C=C\CCC(=O)NS(=O)(=O)c1ccc(Cl)cc1 | 4.62 |  |  |  |
| CC/C=C\C/C=C\C/C=C\C/C=C\C/C=C\CCCC(=O)NCCO | 4.62 |  |  |  |
| CC/C=C\C/C=C\C/C=C\C/C=C\C/C=C\C/C=C\CCC(=O)N(C)CCOC | < 4.30 |  |  |  |
| CCCCC/C=C\C/C=C\CCCCCCCCCCCC(=O)NCCO | < 4.30 |  |  |  |
| CC/C=C\C/C=C\C/C=C\C/C=C\C/C=C\C/C=C\CCC(=O)NS(=O)(=O)c1ccc(O)cc1 | < 4.30 |  |  |  |
| CC/C=C\C/C=C\C/C=C\C/C=C\C/C=C\C/C=C\CCC(=O)OCCOCCO | < 4.30 |  |  |  |
| CCCCC/C=C\C/C=C\CCCCCCCC(=O)O [LINOLEIC ACID] | < 4.30 |  |  |  |
| CC/C=C\C/C=C\C/C=C\C/C=C\C/C=C\C/C=C\CCC(=O)NCCc1ccc(O)c(O)c1 | < 4.30 |  |  |  |
| CC/C=C\C/C=C\C/C=C\C/C=C\C/C=C\C/C=C\CCC(=O)NS(=O)(=O)Cc1ccccc1 | 4.66 | 2 |  |  |
| CCCCC/C=C\C/C=C\CCCCCCCCCCCC(=O)O | < 4.30 |  |  |  |
| CC/C=C\C/C=C\C/C=C\C/C=C\C/C=C\C/C=C\CCC(=O)NCCC | < 4.30 |  |  |  |
| CC/C=C\C/C=C\C/C=C\C/C=C\C/C=C\C/C=C\CCC(=O)NCC(O)CO (centres undefined) | 4.77 | 23 | < 4.30 | Metabolite_Detected |
| CCCCC/C=C\C/C=C\CCCCCCCC(=O)NCCO [LINOLEOYLETHANOLAMIDE] | 4.32 |  |  |  |
| CCCCCCCC/C=C\CCCCCCCC(=O)O [OLEIC ACID] | < 4.30 |  |  |  |

| SMILES | pIC50 [1] | Activity [2] [%] | pIC50 [3] | Drug metabolism [4] |
| --- | --- | --- | --- | --- |
| CC/C=C\C/C=C\C/C=C\C/C=C\C/C=C\C/C=C\CCC(=O)NC(C)CO (centres undefined) | 4.62 | 7 | < 4.30 | Metabolite_Notdetected |
| CC/C=C\C/C=C\C/C=C\CCCCCCCC(=O)NCCO | 4.54 | 29 |  |  |
| CC/C=C\C/C=C\C/C=C\C/C=C\C/C=C\C/C=C\CCC(=O)N1CCN(C)CC1 | < 4.30 |  |  |  |
| CC/C=C\C/C=C\C/C=C\C/C=C\C/C=C\C/C=C\CCC(=O)N1CCOCC1 | < 4.30 |  |  |  |
| CCCCCCCC/C=C\CCCCCCCCCCCC(=O)O [ERUCIC ACID] | < 4.30 |  |  |  |
| CC/C=C\C/C=C\C/C=C\C/C=C\C/C=C\C/C=C\CCC(=O)NS(=O)(=O)C(F)(F)F | 4.33 |  |  |  |
| CCCCC/C=C\C/C=C\C/C=C\C/C=C\CCCC(=O)NCCO [ANANDAMIDE] | < 4.30 |  |  |  |
| CC/C=C\C/C=C\C/C=C\C/C=C\C/C=C\C/C=C\CCC(=O)NS(=O)(=O)c1ccc(C(F)(F)F)cc1 | 4.82 | 19 |  |  |
| CC/C=C\C/C=C\C/C=C\C/C=C\C/C=C\C/C=C\CCC(=O)NS(=O)(=O)c1ccc(OC(F)(F)F)cc1 | 4.72 | 11 |  |  |
| CC/C=C\C/C=C\C/C=C\C/C=C\C/C=C\C/C=C\CCC(=O)N(CCO)CCO | < 4.30 |  |  |  |
| CC/C=C\C/C=C\C/C=C\C/C=C\C/C=C\C/C=C\CCC(=O)NCC(=O)O | 4.62 | 0 | 5.07 | Metabolite_Detected |
| CC/C=C\C/C=C\C/C=C\C/C=C\C/C=C\C/C=C\CCC(=O)N(C)CCO | < 4.30 |  |  |  |
| CC/C=C\C/C=C\C/C=C\C/C=C\C/C=C\C/C=C\CCC(=O)NC(C)C | < 4.30 |  |  |  |
| CC/C=C\C/C=C\C/C=C\C/C=C\C/C=C\C/C=C\CCC(=O)N1CCN(S(C)(=O)=O)CC1 | < 4.30 |  |  |  |
| CC/C=C\C/C=C\C/C=C\C/C=C\C/C=C\C/C=C\CCC(=O)NC(C)(C)C | < 4.30 |  |  |  |
| CC/C=C\C/C=C\C/C=C\C/C=C\C/C=C\C/C=C\CCC(=O)NCCCO | 4.74 | 0 | < 4.30 | Metabolite_Detected |
| CC/C=C\C/C=C\C/C=C\C/C=C\C/C=C\C/C=C\CCC(=O)O [DOCONEXENT] | < 4.30 | 6 |  |  |
| CC/C=C\C/C=C\C/C=C\C/C=C\C/C=C\C/C=C\CCC(=O)NS(=O)(=O)c1ccc([N+](=O)[O-])cc1 | 4.82 | 49 |  |  |
| CC/C=C\C/C=C\C/C=C\C/C=C\C/C=C\C/C=C\CCC(=O)NS(=O)(=O)C1CC1 | < 4.30 |  |  |  |
| CC/C=C\C/C=C\C/C=C\C/C=C\C/C=C\C/C=C\CCC(=O)NCCOCCO | 4.74 | 11 | < 4.30 | Metabolite_Detected |
| CC/C=C\C/C=C\C/C=C\C/C=C\C/C=C\C/C=C\CCC(=O)NCC1CCOCC1 | < 4.30 |  |  |  |

| SMILES | pIC50 [1] | Activity [2] [%] | pIC50 [3] | Drug metabolism [4] |
| --- | --- | --- | --- | --- |
| CC/C=C\C/C=C\C/C=C\C/C=C\C/C=C\C/C=C\CCC(=O)NS(=O)(=O)C(F)(F)C(F)(F)F | 4.68 |  |  |  |
| CC/C=C\C/C=C\C/C=C\C/C=C\C/C=C\C/C=C\CCC(=O)NS(=O)(=O)c1ccc(C(=O)OC)cc1 | 4.52 |  |  |  |
| CC/C=C\C/C=C\C/C=C\C/C=C\C/C=C\C/C=C\CCC(=O)NCCOC | < 4.30 |  |  |  |
| CC/C=C\C/C=C\C/C=C\C/C=C\C/C=C\C/C=C\CCC(=O)Nc1ccccc1O | < 4.30 |  |  |  |
| CC/C=C\C/C=C\C/C=C\C/C=C\C/C=C\C/C=C\CCC(=O)NS(=O)(=O)c1cccs1 | < 4.30 |  |  |  |
| CC/C=C\C/C=C\C/C=C\C/C=C\C/C=C\C/C=C\CCC(=O)NCC(=O)OC | < 4.30 |  |  |  |
| CC/C=C\C/C=C\C/C=C\C/C=C\C/C=C\C/C=C\CCC(=O)NS(=O)(=O)c1ccc(F)cc1 | 4.62 | 0 |  |  |
| CC/C=C\C/C=C\C/C=C\C/C=C\C/C=C\C/C=C\CCC(=O)Nc1cccc(O)c1 | < 4.30 |  |  |  |
| CCCCC/C=C\C/C=C\C/C=C\CCCCCCC(=O)O [DIHOMO-GAMMA-LINOLENIC ACID] | < 4.30 |  |  |  |
| CCCCCCCC/C=C\CCCCCCCC(=O)NCCO [OLEOYLETHANOLAMIDE] | < 4.30 |  |  |  |
| CC/C=C\C/C=C\C/C=C\C/C=C\C/C=C\C/C=C\CCC(=O)NCC(C)O (centres undefined) | 4.57 |  |  |  |
| CC/C=C\C/C=C\C/C=C\CCCCCCCC(=O)O [LINOLENIC ACID] | < 4.30 |  |  |  |
| CC/C=C\C/C=C\C/C=C\C/C=C\C/C=C\C/C=C\CCC(=O)NC1CCOCC1 | < 4.30 |  |  |  |
| CC/C=C\C/C=C\C/C=C\C/C=C\C/C=C\C/C=C\CCC(=O)NS(=O)(=O)c1ccccc1 | < 4.30 |  |  |  |
| CC/C=C\C/C=C\C/C=C\C/C=C\C/C=C\C/C=C\CCC(=O)NS(=O)(=O)c1ccc(C)cc1 | 4.57 |  |  |  |
| CC/C=C\C/C=C\C/C=C\C/C=C\C/C=C\C/C=C\CCC(=O)OCCO | < 4.30 |  |  |  |
| CC/C=C\C/C=C\C/C=C\C/C=C\C/C=C\C/C=C\CCC(=O)NS(=O)(=O)C(C)(C)C | 4.77 | 0 | < 4.30 | Metabolite_Notdetected |
| CC/C=C\C/C=C\C/C=C\C/C=C\C/C=C\C/C=C\CCC(=O)OC(CO)CO | < 4.30 |  |  |  |
| CC/C=C\C/C=C\C/C=C\C/C=C\C/C=C\CCCC(=O)O [ICOSAPENT] | < 4.30 |  |  |  |
